Laboratory results published in patent US4892875A, “Substituted heterocyclylalkyl esters of 1,4-dihydropyridine-3,5-dicarboxylic acids” (Takeda Chemical Industries, Ltd., priority 1982, dated 1990).

Test system: spontaneously hypertensive rats
Experiment: Antihypertensive action (systolic blood pressure, caudal artery) in male spontaneously hypertensive rats
Format: in vivo, rat
Details: 10 mg/kg oral; for Change in blood pressure 1 hr. after treatment / Change in blood pressure 5 hrs. after treatment: after minus before medication, * P < 0.05 vs control; for Duration of antihypertensive effect: measured 1, 5, 8 and 24 hours after administration
Protocol: Male spontaneously hypertensive rats aged 10 to 11 weeks were used (in groups of 3 to 6 individuals). […] Each test compound was suspended in a 5% solution of gum arabic and orally administered. The dosage was 10 mg/kg for all compounds. Animals in a control group was given the above solution of gum arabic only.

Molecule	Change in blood pressure 1 hr. after treatment [mmHg]	Change in blood pressure 5 hrs. after treatment [mmHg]	Duration of antihypertensive effect
2-[4-(4-fluorophenyl)-1-piperazinyl]ethyl methyl 4-(3-chlorophenyl)-2,6-dimethyl-1,4-dihydropyridine-3,5-dicarboxylate [Example 42]	-25	-35	8 to 24 h
CCOC(=O)C1=C(C)NC(C)=C(C(=O)OCCN2CCN(C(c3ccccc3)c3ccccc3)CC2)C1c1cccc([N+](=O)[O-])c1 (stereo not drawn) [Example 2, 2-(4-benzhydryl-1-piperazinyl)ethyl ethyl 2,6-dimethyl-4-(3-nitrophenyl)-1,4-dihydropyridine-3,5-dicarboxylate]	-99	-101	8 to 24 h
CCOC(=O)C1=C(C)NC(C)=C(C(=O)OCCN2CCN(C(c3ccccc3)c3ccccc3)CC2)C1c1cccc(Cl)c1Cl (stereo not drawn) [Example 7, 2-(4-benzhydryl-1-piperazinyl)ethyl ethyl 4-(2,3-dichlorophenyl)-2,6-dimethyl-1,4-dihydropyridine-3,5-dicarboxylate]	-59	-79	> 24 h
COC(=O)C1=C(C)NC(C)=C(C(=O)OCCN2CCN(C(c3ccc(C)cc3)c3ccc(C)cc3)CC2)C1c1cccc([N+](=O)[O-])c1 (stereo not drawn) [Example 9, 2-[4-(4,4'-dimethylbenzhydryl)-1-piperazinyl]ethyl methyl 2,6-dimethyl-4-(3-nitrophenyl)-1,4-dihydropyridine-3,5-dicarboxylate]	-96	-98	> 24 h
COC(=O)C1=C(C)NC(C)=C(C(=O)OCCN2CCN(C(c3ccc(Cl)cc3)c3ccc(Cl)cc3)CC2)C1c1cccc([N+](=O)[O-])c1 (stereo not drawn) [Example 12, 2-[4-(4,4'-dichlorobenzhydryl)-1-piperazinyl]ethyl methyl 2,6-dimethyl-4-(3-nitrophenyl)-1,4-dihydropyridine-3,5-dicarboxylate]	-85	-87	> 24 h
COC(=O)C1=C(C)NC(C)=C(C(=O)OCCN2CCN(C(c3ccc(F)cc3)c3ccc(F)cc3)CC2)C1c1cccc(Cl)c1Cl (stereo not drawn) [Example 13, 2-[4-(4,4'-difluorobenzhydryl)-1-piperazinyl]ethyl methyl 4-(2,3-dichlorophenyl)-2,6-dimethyl-1,4-dihydropyridine-3,5-dicarboxylate]	-34	-31	8 to 24 h
COC(=O)C1=C(C)NC(C)=C(C(=O)OCCN2CCN(c3ccc(F)cc3)CC2)C1c1cccc([N+](=O)[O-])c1.Cl (stereo not drawn) [Example 16, 2-[4-(4-fluorophenyl)-1-piperazinyl]ethyl methyl 2,6-dimethyl-4-(3-nitrophenyl)-1,4-dihydropyridine-3,5-dicarboxylate hydrochloride]	-51	-45	8 to 24 h
COC(=O)C1=C(C)NC(C)=C(C(=O)OCCN2CCN(c3cccc(Cl)c3)CC2)C1c1cccc([N+](=O)[O-])c1 (stereo not drawn) [Example 17, 2-[4-(3-chlorophenyl)-1-piperazinyl]ethyl methyl 2,6-dimethyl-4-(3-nitrophenyl)-1,4-dihydropyridine-3,5-dicarboxylate]	-77	-46	8 to 24 h
CCOC(=O)C1=C(C)NC(C)=C(C(=O)OCCN2CCN(C(c3ccc(C)cc3)c3ccc(C)cc3)CC2)C1c1cccc(Cl)c1Cl (stereo not drawn) [Example 24, 2-[4-(4,4'-dimethylbenzhydryl)-1-piperazinyl]ethyl ethyl 4-(2,3-dichlorophenyl)-2,6-dimethyl-1,4-dihydropyridine-3,5-dicarboxylate]	-49	-30	ca. 8 hrs.
CCOC(=O)C1=C(C)NC(C)=C(C(=O)OCCN2CCN(C(c3ccccc3)c3ccccc3)CC2)C1c1cccc(Cl)c1 (stereo not drawn) [Example 28, 2-(4-benzhydryl-1-piperazinyl)ethyl ethyl 4-(3-chlorophenyl)-2,6-dimethyl-1,4-dihydropyridine-3,5-dicarboxylate]	-93	-75	8 to 24 h
COCCOC(=O)C1=C(C)NC(C)=C(C(=O)OCCN2CCN(C(c3ccccc3)c3ccccc3)CC2)C1c1cccc([N+](=O)[O-])c1 (stereo not drawn) [Example 30, 2-(4-benzhydryl-1-piperazinyl)ethyl 2-methoxyethyl 2,6-dimethyl-4-(3-nitrophenyl)-1,4-dihydropyridine-3,5-dicarboxylate]	-48	-31	8 to 24 h
CCOC(=O)C1=C(C)NC(C)=C(C(=O)OCCN2CCN(C(c3ccc(C)cc3)c3ccc(C)cc3)CC2)C1c1cccc(C(F)(F)F)c1 (stereo not drawn) [Example 32, 2-[4-(4,4'-dimethylbenzhydryl)-1-piperazinyl]ethyl ethyl 2,6-dimethyl-4-(3-trifluoromethylphenyl)-1,4-dihydropyridine-3,5-dicarboxylate]	-46	-48	8 to 24 h
CCOC(=O)C1=C(C)NC(C)=C(C(=O)OCCN2CCN(C(c3ccc(C)cc3)c3ccc(C)cc3)CC2)C1c1cccc(Cl)c1 (stereo not drawn) [Example 33, 2-[4-(4,4'-dimethylbenzhydryl)-1-piperazinyl]ethyl ethyl 4-(3-chlorophenyl)-2,6-dimethyl-1,4-dihydropyridine-3,5-dicarboxylate]	-51	-60	8 to 24 h
COC(=O)C1=C(C)NC(C)=C(C(=O)OCCCN2CCN(C(c3ccccc3)c3ccccc3)CC2)C1c1cccc(Cl)c1 (stereo not drawn) [Example 38, 3-(4-benzhydryl-1-piperazinyl)propyl methyl 4-(3-chlorophenyl)-2,6-dimethyl-1,4-dihydropyridine-3,5-dicarboxylate]	-50	-42	8 to 24 h
